Test results reported in patent US20100087534A1, “Use of a Photosensitizing Agent in the Treatment or Prevention of an Inflammation-Associated Disorder in the Gastrointestinal Tract of a Mammal” (priority 2005, published 2010).

Tests used:
[1] = test system: SCID mice with colitis induced by transfer of CD4+CD45RBhigh T-cells; assay: PDT in CD4+CD45RBhigh transfer colitis, clinical and endoscopic follow-up (Example 1); assay type: in vivo
Procedure: b) A rigid mini-endoscope Hopkins I (vision direct 0°, length 10 cm, diameter 1.9 mm, Anklin, Binningen, Switzerland) with a 9 Charrière (Ch) tube and a channel for instrumentation (Flexible biopsy forceps Ch 3, 53 cm length) coupled on the Coloview Basic equipment (light source Xenon 175 and Endovision Telecam SLB; Storz Inc, Tuttlingen, Germany) and the home made air inflation system (see above). […] First the colonoscopy technique was optimised in 10 wild type BALB/c mice and 10 SCID mice, which were colonoscoped repeatedly (3 times within a 2 weeks time period). Afterwards the accuracy of colonoscopy in diagnosis colitis was evaluated in BALB/c mice with sodium dextran sulfate (DSS) induced colitis and in SCID mice with colitis induced by transfer of a subpopulation of CD4+CD45RBhigh T-cells. For this purpose the mice were colonoscoped at diverse time points after onset of DSS administration or T-cell transfer and the endosocpic image was compared with the endoscopic image of normal mice and the histology after sacrificing the mice.
To induce CD4+ CD45RBhigh transfer colitis, T cells used for the adoptive transfer of the SCID mice were obtained from the spleens of six weeks old wild type BALB/c mice that were housed under specific pathogen-free (SPF) conditions at our animal care facility. Mice were sacrificed by cervical dislocation under anesthesia and spleen were recovered and kept in cold RPMI 1640 medium complemented with a final concentration of 2% fetal calf serum (FCS) until processing. The tissue was forced through 70 μm and 40 μm nylon meshes and washed. Spleen cells were then centrifugated and the pellet was resuspended in 5 ml of cold medium for counting. The cellular preparation was then enriched in CD4+ cells by magnetic cell sorting using CD4 (L3T4) MACS microbeads (Miltenyi Biotec, Gladbach, Germany). The enriched cells were then stained using fluorescein isothiocynate (FITC)-conjugated anti-CD4 and phyoerythrin (PE)—conjugated anti-CD45RB monoclonal antibodies (BD, Biosciences Pharmingen, San Diego, USA). CD4+CD45RB high cells were sorted by FACS, resuspended in PBS at the concentration of 10^6 cells/ml and finally 10^5 cells were injected intravenously under sterile conditions into 4-6 weeks old SCID mice.
Colonoscopy could safely be performed in normal BALB/c mice and SCID mice. The mouse colon could be intubated up to the right flexure. The length of the accessible mouse colon was approximately 4 cm with the rectum comprised. In DSS induced colitis a correlation between colitis and weight loss was observed, whereas in SCID mice with colitis after CD4+CD45RB^high T-cell transfer, endoscopic signs of colitis developed earlier as weight loss and the correlation between endoscopic signs of colitis and weight loss was less good. The colitis in DSS mice was segmental, the rectum was always spared, erythema, ulcerations, changes of the normal vascular pattern could be observed. […] Furthermore, since the length of the accessible mouse colon was only about 4 cm, they changed their scoring system concerning the length.

[2] = Safety of colonoscopy and low/high dose PDT in wild type BALB/c mice
[3] = test system: SCID mice with TH1-mediated Crohn-like colitis after transfer of CD4+CD45RBhigh T-cells; assay: Endoscopic index of colitis severity (EICS) after low dose PDT in transfer colitis (Example 2); assay type: in vivo
Text: Since in example 1 only 55% of the mice developed colitis, Applicants have injected 4×10^5 cells CD4+CD45RB^high intravenously into 9.5 weeks old SCID mice in the following second set of SCID mice.
Evolution of colitis in SCID mice was monitored every week by colonoscopic investigation after induction. Mice with moderately inflamed colons [endoscopic index of colitis severity (EICS) index 4-8] or marked inflamed colons (EICS 9-13) were randomly assigned to either a <<low dose>> PDT group or no treatment group (disease control group). Unmanipulated age-matched SCID mice served as negative controls.
PDT was performed with a photosensitizing agent (δ-ALA) dose of 15 mg/kg, administered 3 hours before the illumination with the energy dose of 10 J/cm^2 per gastrointestinal tract tissue.
The illumination time was 100 s, the wavelength 635 nm.
After completing the experiments with 15 mg/kg δ-ALA and 10 J/cm^2, the Applicants evaluated whether an energy illumination energy of 20 or 2 J/cm^2 would provide an equivalent or better effect on colitis. Furthermore, the Applicants sought to determine whether PDT treatment could be repeated at short term and whether this re-treatment would have a beneficial effect on colitis too. To this end, the Applicants performed another set of experiment with marked inflamed mice in which half of the PDT treated mice (15 mg/kg S-ALA and 10 J/cm^2) were subjected to a second identical low dose PDT treatment at the time of the re-apparition of colitis symptoms, namely one week after the first PDT treatment.
Mice were monitored by colonoscopy at day 3 and weeks 1, 2, 3 and 4 post PDT treatment. In addition to parameters investigated in example 1, CD4 immunostaining and apoptosis detection were performed.
All statistical analyses were performed using the Prism version 4.0c software from GraphPad Software (San Diego, Calif.). The unpaired two-tail Mann-Whitney test was usually applied, unless the numbers of mice in test groups were too small to perform this test (<5 mice in both test groups) and the unpaired two-tail t test was thus applied. Significance limit was set at a 2-tailed P value≦0.05.

[4] = of the 4 mice which developed signs of severe disease

In the case of `NCC(=O)CCC(=O)O` [δ-ALA, 5-aminolevulinic acid], the “signs of photosensitivity or damage of the mucosa” value ([1]; any of the animals) is reported as “No signs of photosensitivity or damage of the mucosa was observed”, the “endoscopic severity index after PDT” value ([1]; mice that could be followed up by colonoscopy) is reported as “improved significantly” and the “mice cured by PDT” value [1, 4] is reported as 2 mice. For the same molecule, the “mice with improved clinical signs after PDT” value [1, 4] was “one”, the “mice without clinical response” value ([1]; one of the 4 mice which developed signs of severe disease) was 25% and the “signs of skin phototoxicity” value ([2]; all experimental groups) was “no signs of skin phototoxicity were observed”. For the same molecule, the “histology of colon (microscopic changes)” value ([2]; all groups other than high dose PDT) was “no microscopic changes were observed”, the “exterior aspect of mice (quality of life)” value ([2]; all groups other than high dose PDT (low dose PDT, δ-ALA only), 74 h observation) was “the exterior aspect of mice remained unchanged” and the “changes in the blood formula” value ([2]; any of the experimental conditions, 0 and 74 h) was “No significant changes in the blood formula were seen”. For the same molecule, the “inflammatory cells by anti-MAC immunostaining” value ([2]; high dose PDT, compared to naïve mice) was “an increase of inflammatory cells was observed”, the “inflammatory cells by anti-MAC immunostaining” value ([2]; low dose PDT) was “did not lead to an increase in inflammatory cells” and the “macroscopic aspect of colon” value ([2]; low dose PDT, 74 hours) was “the colon appeared macroscopically normal”. For the same molecule, the EICS ([3]; marked inflamed mice (mean EICS 10.4±0.2 before), 15 mg/kg δ-ALA, 10 J/cm^2, 3 days after PDT, disease control 10.7±0.6, P<0.0001) was 7.3±0.3, the EICS ([3]; marked inflamed mice, 15 mg/kg δ-ALA, 2 J/cm^2, 3 days after PDT, disease control 10.7±0.6, P=0.0271) was 8.4±0.5 and the “EICS versus disease control group” value ([3]; marked inflamed mice, 15 mg/kg δ-ALA, 10 J/cm^2, up to 4 weeks after PDT) was “remained significantly lower than the one of the disease control group mice”. For the same molecule, the “effect on colitis (EICS) versus disease control group” value ([3]; marked inflamed mice, 15 mg/kg δ-ALA, 20 J/cm^2, any time point) was “did not induce any significant beneficial effect”, the EICS ([3]; marked inflamed mice, one single PDT treatment, time point 1 week after second PDT of comparison group) was 9.8±0.5 and the EICS ([3]; marked inflamed mice, one single PDT treatment, time point 2 weeks after second PDT of comparison group) was 9.8±0.6. The EICS ([3]; marked inflamed mice, two PDT treatments (15 mg/kg, 10 J/cm^2) one week apart, 1 week after second PDT) was 7.3±0.9, the EICS ([3]; marked inflamed mice, two PDT treatments one week apart, 2 weeks after second PDT) was 7.33±0.3 and the “EICS versus disease control group” value ([3]; moderately inflamed mice, since week 2 post PDT) was “appeared no more significantly different from the one of the disease control group”.
